Measured values published in US20230183333A1, “COMPOSITION FOR THE TREATMENT OF PHILADELPHIA CHROMOSOME-POSITIVE ACUTE LYMPHOBLASTIC LEUKEMIA” (priority 2020, published 2023).

T1: mouse Jak3 in pre-B cells (mouse, UniProt Q62137 1-1100)
T1 construct: Detected in cells by PLA with an antibody from Cell Signaling
T1 sequence (looked up): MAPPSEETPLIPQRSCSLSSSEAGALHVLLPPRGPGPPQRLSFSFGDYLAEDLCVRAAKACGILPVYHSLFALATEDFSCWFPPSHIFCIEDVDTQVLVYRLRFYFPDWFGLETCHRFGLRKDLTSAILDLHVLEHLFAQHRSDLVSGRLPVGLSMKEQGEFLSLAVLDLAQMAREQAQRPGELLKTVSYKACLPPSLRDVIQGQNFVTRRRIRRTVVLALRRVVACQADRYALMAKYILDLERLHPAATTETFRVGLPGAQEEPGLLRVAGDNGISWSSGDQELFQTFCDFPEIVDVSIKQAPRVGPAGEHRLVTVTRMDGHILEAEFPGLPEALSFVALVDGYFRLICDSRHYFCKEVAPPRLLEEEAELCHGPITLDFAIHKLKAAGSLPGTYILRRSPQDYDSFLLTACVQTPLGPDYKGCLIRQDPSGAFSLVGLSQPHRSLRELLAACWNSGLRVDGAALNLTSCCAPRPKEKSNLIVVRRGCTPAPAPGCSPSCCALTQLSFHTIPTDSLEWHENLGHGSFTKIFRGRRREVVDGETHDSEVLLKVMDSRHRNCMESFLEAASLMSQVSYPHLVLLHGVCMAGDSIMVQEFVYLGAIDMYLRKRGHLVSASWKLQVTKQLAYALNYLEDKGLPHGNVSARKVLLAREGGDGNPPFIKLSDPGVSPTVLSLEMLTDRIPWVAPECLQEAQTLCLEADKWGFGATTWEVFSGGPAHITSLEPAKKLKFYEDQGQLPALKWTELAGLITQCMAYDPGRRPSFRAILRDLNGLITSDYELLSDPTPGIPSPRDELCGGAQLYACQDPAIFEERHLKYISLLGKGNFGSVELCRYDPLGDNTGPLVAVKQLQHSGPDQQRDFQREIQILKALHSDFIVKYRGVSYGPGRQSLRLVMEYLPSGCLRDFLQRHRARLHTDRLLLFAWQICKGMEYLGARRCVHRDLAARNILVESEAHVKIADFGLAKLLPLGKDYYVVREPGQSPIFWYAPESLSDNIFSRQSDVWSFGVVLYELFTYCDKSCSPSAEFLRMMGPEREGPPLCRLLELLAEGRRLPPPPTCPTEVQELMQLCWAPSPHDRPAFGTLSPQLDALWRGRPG

T2: human interleukin 7 receptor (IL7R) on SUP-B15 Ph+ BCP-ALL cells (human, UniProt P16871 21-459)
T2 construct: whole, on cells; In the immunoprecipitation it comes from SUP-B15 lysate; also called IL7Rα; human IL7Rα
T2 sequence (looked up): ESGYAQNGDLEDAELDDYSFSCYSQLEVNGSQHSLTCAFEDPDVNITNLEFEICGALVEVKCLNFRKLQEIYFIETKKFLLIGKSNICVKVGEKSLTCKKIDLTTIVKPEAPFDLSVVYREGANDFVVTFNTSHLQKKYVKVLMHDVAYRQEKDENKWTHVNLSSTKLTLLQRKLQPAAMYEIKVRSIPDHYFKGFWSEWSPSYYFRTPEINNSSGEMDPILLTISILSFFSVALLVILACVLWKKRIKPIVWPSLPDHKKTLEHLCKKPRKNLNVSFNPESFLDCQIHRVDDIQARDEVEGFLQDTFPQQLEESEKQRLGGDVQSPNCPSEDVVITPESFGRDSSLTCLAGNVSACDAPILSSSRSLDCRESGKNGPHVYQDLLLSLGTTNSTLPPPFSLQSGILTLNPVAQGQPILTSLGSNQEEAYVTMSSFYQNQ

B1: mouse IL7R on bone marrow-derived pre-B cells (WT or BCR-ABL1 transformed) (receptor, UniProt P16872 21-459, looked up)
chain: ESGNAQDGDLEDADADDHSFWCHSQLEVDGSQHLLTCAFNDSDINTANLEFQICGALLRVKCLTLNKLQDIYFIKTSEFLLIGSSNICVKLGQKNLTCKNMAINTIVKAEAPSDLKVVYRKEANDFLVTFNAPHLKKKYLKKVKHDVAYRPARGESNWTHVSLFHTRTTIPQRKLRPKAMYEIKVRSIPHNDYFKGFWSEWSPSSTFETPEPKNQGGWDPVLPSVTILSLFSVFLLVILAHVLWKKRIKPVVWPSLPDHKKTLEQLCKKPKTSLNVSFNPESFLDCQIHEVKGVEARDEVESFLPNDLPAQPEELETQGHRAAVHSANRSPETSVSPPETVRRESPLRCLARNLSTCNAPPLLSSRSPDYRDGDRNRPPVYQDLLPNSGNTNVPVPVPQPLPFQSGILIPVSQRQPISTSSVLNQEEAYVTMSSFYQNK
notes: whole, on cells; also called IL7Rα
B2: human CXCR4 on SUP-B15 cells (receptor, UniProt P61073 1-352, looked up)
chain: MEGISIYTSDNYTEEMGSGDYDSMKEPCFREENANFNKIFLPTIYSIIFLTGIVGNGLVILVMGYQKKLRSMTDKYRLHLSVADLLFVITLPFWAVDAVANWYFGNFLCKAVHVIYTVNLYSSVLILAFISLDRYLAIVHATNSQRPRKLLAEKVVYVGVWIPALLLTIPDFIFANVSEADDRYICDRFYPNDLWVVVFQFQHIMVGLILPGIVILSCYCIIISKLSHSKGHQKRKALKTTVILILAFFACWLPYYIGISIDSFILLEIIKQGCEFENTVHKWISITEALAFFHCCLNPILYAFLGAKFKTSAQHALTSVSRGSSLKILSKGKRGGHSSVSTESESSSFHSS
notes: whole, on cells; In the immunoprecipitation it comes from SUP-B15 lysate; also called C-X-C chemokine receptor 4
B3: mouse CXCR4 on bone marrow-derived pre-B cells (WT or BCR-ABL1 transformed) (receptor, UniProt P70658 1-359, looked up)
chain: MEPISVSIYTSDNYSEEVGSGDYDSNKEPCFRDENVHFNRIFLPTIYFIIFLTGIVGNGLVILVMGYQKKLRSMTDKYRLHLSVADLLFVITLPFWAVDAMADWYFGKFLCKAVHIIYTVNLYSSVLILAFISLDRYLAIVHATNSQRPRKLLAEKAVYVGVWIPALLLTIPDFIFADVSQGDISQGDDRYICDRLYPDSLWMVVFQFQHIMVGLILPGIVILSCYCIIISKLSHSKGHQKRKALKTTVILILAFFACWLPYYVGISIDSFILLGVIKQGCDFESIVHKWISITEALAFFHCCLNPILYAFLGAKFKSSAQHALNSMSRGSSLKILSKGKRGGHSSVSTESESSSFHSS
notes: whole, on cells
B4: IL7: cytokine that binds IL7Rα chain (protein)
chain: DCDIEGKDGKQYESVLMVSIDQLLDSMKEIGSNCLNNEFNFFKRHICDANKEGMFLFRAARKLRQFLKMNSTGDFDLHLLKVSEGTTILLNCTGQVKGRKPAALGEAQPTKSLEENKSLKEQKKLNDLCFLKRLLQEIKTCWNKILMGTKEH

Assays:
[1] = tested on: BCR-ABL1 transformed cells; assay: Imatinib-induced cell death in the presence of cytokine/chemokine (viability, cell cycle); assay type: cell-based, mouse; conditions: added together with 1 μM imatinib
Protocol: BM cells from WT (n=7, female), IL7Rα^Δ (n=7, female), IL7Rα^fl/fl (n=7, female), CXCR4^fl/fl (n=3, female) and FoxO1^fl/fl (n=3, female) mice were collected and retrovirally transformed with either an empty pMIG vector or with a pMIG vector expressing BCR-ABL1. Unless mentioned otherwise, cells were cultured for 3 to 7 days in Iscove's medium (Biochrom AG) containing 10% heat-inactivated FCS (Sigma-Aldrich), 2 mM 1-glutamine, 100 U/ml penicillin (Gibco), 100 U/ml streptomycin (Gibco), and 50 μM 2-mercaptoethanol. The medium was supplemented in excess with the supernatant of J558L plasmacytoma cells stably transfected with a vector encoding murine IL7. Transformed cells were selected by IL7 withdrawal and kept in optimum conditions^38. Retroviral vectors containing either constitutively active STAT5 (STAT5-CA)^34 or an empty vector were used to transduce BCR-ABL1-transformed cells and sorted cells were used then for western blot or flow cytometry analysis. 1-2μM 4-hydroxy tamoxifen (Tam) (Sigma-Aldrich) was used to induce deletion on plasmids expressing tamoxifen-inducible form of Cre (Cre-ER^T2)^14. All cells were tested and found free from mycoplasma.
Antibodies for flow cytometry (CD19, IL7R, CXCR4, FoxO1 and CD11b) were purchased from (eBiosciences, BioLegend, Invitrogen or Cell Signaling). Intracellular flow cytometry staining was performed using Fix and Perm cell permeabilization kit (ADG). Cell viability was measured using Sytox® blue dead cell stain (Life Technologies). FACS Cantoll (BD Biosciences) was used for flow cytometry, and FlowJo v.10.1 was used for data analysis.

[2] = tested on: BCR-ABL1 transformed cells; assay: CXCL12-induced Ca2+ flux; assay type: cell-based, mouse; conditions: CXCL12 100 ng/ml
Protocol: A total of 1×10^6 cells were loaded with Indo-1 AM (Invitrogen) and used for Ca^2+ analyses^62. 100 ng/m1 of CXCL12 was used for stimulation

[3] = tested on: human Ph+ ALL SUP-B15 cell line; assay: IL7R and CXCR4 surface expression after imatinib in a human Ph+ ALL cell line; assay type: cell-based; conditions: 5 μM imatinib, day 7, surface expression
Protocol: 68 BCR-ABL+ ALL patients were treated according to European intergroup study of post-induction treatment of Philadelphia-chromosome-positive ALL (EsPhALL) 2004 and 2010 protocols (NCT00287105) and ALL-Berlin-Frankfurt-Münster (BFM) 2000 (NCT00430118) study. Informed consent was obtained according to institutional regulations, in accordance with the Declaration of Helsinki. 697, SUP-B15, and TOM-1 cell lines were obtained from DSMZ. Ph+ ALL cells containing T3151 mutation was kindly provided by M. Miischen (Shojaee, S., et al. Nat Med 22, 379-387 (2016)).

[4] = biological target: T1, mouse Jak3 in pre-B cells; assay: proximity ligation assay on mouse WT and BCR-ABL1 transformed pre-B cells
[5] = biological target: T2, human interleukin 7 receptor (IL7R) on …; assay: Fab-PLA on SUP-B15 cells in comparison to Ramos cells
[6] = biological target: B1; assay: proximity ligation assay on mouse pre-B cells
[7] = biological target: T1, mouse Jak3 in pre-B cells; assay: proximity ligation assay on mouse BCR-ABL1 transformed pre-B cells

Molecule: c1cc(CN2CCCNCCNCCCNCC2)ccc1CN1CCCNCCNCCCNCC1 [AMD3100]
effect on imatinib-induced cell death [1]: did not affect imatinib treatment
CXCL12-induced Ca2+ response [2]: prevented the Ca^2+ response

Molecule: Cc1ccc(NC(=O)c2ccc(CN3CCN(C)CC3)cc2)cc1Nc1nccc(-c2cccnc2)n1 [imatinib]
expression of IL7R and CXCR4 [3]: upregulated IL7R and CXCR4

Molecule: CXCL12: chemokine, the ligand for CXCR4
effect on imatinib-induced cell death [1]: did not affect imatinib treatment

Molecule: TSLP: the ligand for CRLF2
effect on imatinib-induced cell death [1]: unable to rescue BCR-ABL1 transformed cells from inhibitor-induced cell death

Molecule: B1
binding result [4]: binds

Molecule: B2
binding result [5]: binds

Molecule: B3
binding result [6]: binds
binding result [7]: binds

Molecule: B4
effect on imatinib-induced cell death [1]: counteracted imatinib-induced cell death and restored the cell cycle progression
